Laboratory results taken from patent US7662824B2, “Acylhydrazones as kinase modulators” (Janssen Pharmaceutica NV, priority 2005, dated 2010).
Values after ≈ are worked out from the molar mass of the structure shown. Where a name gives a salt, the structure may show the parent alone.

Legend:
c-Met [1] = target: T1, c-Met (Homo sapiens, UniProt P08581); experiment: Delfia autophosphorylation kinase assay on the c-Met; assay type: biochemical; set-up: The purified His6 tagged cytoplasmic domain of c-Met was diluted to a concentration of 500 ng/ml; made in house; host or cells: Sf9 insect cells with recombinant baculovirus; Large-scale expression and purification were done by the contract lab Pan Vera; conditions: His6 tagged cytoplasmic domain of c-Met, 1 μM ATP; read-out: c-Met Delfia Autophos IC50
Procedure: This example describes the cloning, expression, and purification of the cytoplasmic domain of c-Met which has the c-Met receptor tyrosine kinase activity.
A DELFIA time resolved fluorescence assay was developed for screening of compounds that decreases the autophosphorylation thus the kinase activity of c-Met.
The DELFIA assay is non-radioactive. The autophophorylation of the c-Met is measured by an anti-phosphotyrosine antibody coupled to an Europium tag.
A major advantage of this format is that it allowed for the development of an autophosphorylation assay using Ni-chelate plates which bind the hexa-his tag on the recombinant Met kinase. Autophosphorylation assay allows to use a known substrate, Met kinase itself, for the phosphorylation. The DELFIA Met autophosphorylation assay is very sensitive with a signal to noise ratio in excess of 50:1.
The assay procedure for screening is as follows. The purified His6 tagged cytoplasmic domain of c-Met was diluted to a concentration of 500 ng/ml in enzyme dilution buffer (50 mM Tris-HCl, pH8.0, 0.1% BSA) and dispensed to assay plates at a volume of 50 μl per well. Black opaque HisGrab Nickel coated 96 well plates (Pierce, Rockford, Ill.) were selected to run the assay. Next, 2.5 μl of compound in 40% DMSO was added to test wells, 2.5 μl of 40% DMSO only was added to the negative control wells. The autophosphorylation reaction was initiated upon the addition of 50 μl of reaction buffer, 50 mM Tris-HCl, pH 8.0, 10 mM MgCl2, 0.1 mM Na3VO4, 1 mM DTT, 1 μM ATP. Plates were incubated at room temperature for 1 hour followed by 2 washes with 200 μl/well of PBS. Europium conjugated anti-phosphotyrosine antibody, Eu-PY20 from Perkin Elmer was diluted to 50 ng/ml in Delfia AB buffer (Perkin Elmer, Boston, Mass.), added to the 96 well assay plates at a volume of […], and incubated at room temperature for 2 hours. Assay plates were then washed 4 times each with 200 μl/well of Delfia wash buffer (Perkin Elmer). After the final wash 150 μl of Delfia Enhancement solution (Perkin Elmer) was added to each well of the assay plate and incubated at room temperature for 1 hour. Plates were read on an LJL Analyst instrument (Molecular Devices; Sunnyvale, Calif.) with filter settings of 360 excitation, 620 emission, and 410 dichroic. IC50 values were calculated using Graphpad Prism software (Graphpad Software; San Diego, Calif.).
Target sequence in this assay (P08581 956-1390 limits assumed): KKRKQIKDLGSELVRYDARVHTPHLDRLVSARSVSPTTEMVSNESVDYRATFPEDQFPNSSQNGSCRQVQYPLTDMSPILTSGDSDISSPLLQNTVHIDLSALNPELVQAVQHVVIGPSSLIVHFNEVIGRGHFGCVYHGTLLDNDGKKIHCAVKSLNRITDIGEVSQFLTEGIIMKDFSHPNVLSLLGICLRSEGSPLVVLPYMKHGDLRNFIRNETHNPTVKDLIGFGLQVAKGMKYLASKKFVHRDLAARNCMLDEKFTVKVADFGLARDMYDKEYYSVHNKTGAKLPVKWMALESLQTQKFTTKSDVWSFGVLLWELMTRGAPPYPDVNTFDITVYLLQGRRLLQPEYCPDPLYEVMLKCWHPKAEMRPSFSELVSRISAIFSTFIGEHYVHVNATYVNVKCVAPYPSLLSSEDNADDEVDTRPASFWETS

c-Met [2] = target: T1, c-Met; experiment: Fluorescence polarization assay on the kinase activity of c-Met; assay type: biochemical; set-up: The c-Met kinase domain consists amino acid 1046-1390 of the c-Met protein; made in house; host or cells: Sf9 insect cells with baculovirus; conditions: 6H-TEV-cMet, poly Gly4Tyr substrate, 10 μM ATP; read-out: c-Met FP Enz IC50
From the text: A fluorescence polarization assay (FP) was developed for screening of compounds that decreases the kinase activity of c-Met.
A protein (6H-TEV-cMet) comprising c-Met kinase domain was cloned, recombinantly expressed and purified following a procedure similar to that as described in Example A. The protein comprises a His tag consisting of six histidines at its N-terminal, a TEV protease cleavage site, and the c-Met kinase domain. The c-Met kinase domain consists amino acid 1046-1390 of the c-Met protein as listed in GenBank protein accession number P08581.
For the c-Met kinase assay, the 6H-TEV-cMet was used as the enzyme, and a poly Gly4Tyr peptide (Sigma, P-0275) was used as the substrate. The kinase reaction was performed in a volume of 10 μl in HE microplates (LJL Biosystems). Assay conditions were as follows: 100 mM HEPES pH 7.5, 0.01% Tween-20, 1 mM DTT, 5 mM MgCl2, 10 μM ATP, 10 μg/ml poly Gly4Tyr. The kinase reaction was initiated upon addition of 10 nM 6H-TEV-cMet. After a 12 minute incubation at room temperature the reaction was terminated with […] 50 mM EDTA.
Phosphorylation of the peptide substrate was detected with PanVera Tyrosine Kinase Assay Kit, Green reagents (P2837). Five minutes after the addition of EDTA, 10 μl of antibody/tracer mix (Pan Vera reagents, 1:1:3 dilution of antibody: Tracer: FP dilution buffer, Cat. # P2837) was added to each well. Plates were allowed to incubate for 30 minutes at room temperature and fluorescence polarization was measured with an LJL Analyst instrument (Molecular Devices; Sunnyvale, Calif.) with excitation=485 nm filter and emission=530 nm filter. IC50 values were calculated from triplicate sets of data using Graphpad Prism software (Graphpad Software; San Diego, Calif.).
Target sequence in this assay (P08581 1046-1390): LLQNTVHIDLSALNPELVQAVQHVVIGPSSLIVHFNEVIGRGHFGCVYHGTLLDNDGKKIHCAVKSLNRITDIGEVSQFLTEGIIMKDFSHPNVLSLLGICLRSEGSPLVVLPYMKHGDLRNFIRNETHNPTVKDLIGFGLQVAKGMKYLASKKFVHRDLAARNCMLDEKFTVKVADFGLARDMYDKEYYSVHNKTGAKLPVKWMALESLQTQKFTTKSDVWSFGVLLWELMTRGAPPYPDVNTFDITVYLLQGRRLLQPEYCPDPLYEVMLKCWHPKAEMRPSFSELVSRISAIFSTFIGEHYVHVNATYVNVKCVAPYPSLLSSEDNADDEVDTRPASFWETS

Aqueous solubility assay = conditions: water with 0.4% DMSO, kinetic from dmso stock
Procedure: Water, PBS and aqueous HCl at pH2 having a final DMSO content of 0.4%, with the final DMSO concentration reaching 40 μM. Samples were placed in the incubator and shaken for 15 minutes.

Molecule | IC50 (c-Met [1]) [nM] | IC50 (c-Met [2]) [nM] | solubility at 15 min (Aqueous solubility assay) [µM]
4-Bromo-3-[(2-2,3-dihydro-benzofuran-5-yl-acetyl)-hydrazono]-2-oxo-2,3-dihydro-1H-indole-6-carboxylic acid (3-morpholin-4-yl-propyl)-amide [Example 7] | 0.7 | 1 | 
O=C(Cc1ccc2c(c1)CCO2)N/N=C1/C(=O)Nc2cc(C(=O)NCCCN3CCC[C@H]3CO)cc(Br)c21 [Example 1, (S)-4-Bromo-3-[(2-2,3-dihydro-benzofuran-5-yl-acetyl)-hydrazono]-2-oxo-2,3-dihydro-1H-indole-6-carboxylic acid [3-(2-hydroxymethyl-pyrrolidin-1-yl)-propyl]-amide] | 6 |  | 
CN1CCN(C(=O)c2cc(Br)c3c(c2)NC(=O)/C3=N\NC(=O)Cc2ccc3c(c2)CCO3)CC1 [Example 2, (2,3-Dihydro-benzofuran-5-yl)-aceticacid[4-bromo-6-(4-methyl-piperazine-1-carbonyl)-2-oxo-1,2-dihydro-indol-3-ylidene]-hydrazide] | 10 |  | 43.9 (≈ 23.1 µg/mL)
O=C(Cc1ccc2c(c1)CCO2)N/N=C1\C(=O)Nc2cc(C(=O)NCCN3CCOCC3)ccc21 [Example 3, 3-[(2-2,3-Dihydro-benzofuran-5-yl-acetyl)-hydrazono]-2-oxo-2,3-dihydro-1H-indole-6-carboxylic acid(2-morpholin-4-yl-ethyl)-amide] | 24 | 24 | 38.1 (≈ 18.2 µg/mL)
CN1CCN(CCCNC(=O)c2ccc3c(c2)NC(=O)/C3=N\NC(=O)Cc2ccc3c(c2)CCO3)CC1 [Example 4, 3-[(2-2,3-Dihydro-benzofuran-5-yl-acetyl)-hydrazono]-2-oxo-2,3-dihydro-1H-indole-6-carboxylic acid [3-(4-methyl-piperazin-1-yl)-propyl]-amide] | 28 |  | 37.9 (≈ 19.1 µg/mL)
CN1CCN(CCCNC(=O)c2cc(Br)c3c(c2)NC(=O)/C3=N\NC(=O)Cc2ccc3c(c2)CCO3)CC1 [Example 5, 4-Bromo-3-[(2-2,3-dihydro-benzofuran-5-yl-acetyl)-hydrazono]-2-oxo-2,3-dihydro-1H-indole-6-carboxylic acid [3-(4-methyl-piperazin-1-yl)-propyl]-amide] | 1 | 13 | 38.8 (≈ 22.6 µg/mL)
O=C(Cc1ccc2c(c1)CCO2)N/N=C1\C(=O)Nc2cc(C(=O)NCCN3CCOCC3)cc(Br)c21 [Example 6, 4-Bromo-3-[(2-2,3-dihydro-benzofuran-5-yl-acetyl)-hydrazono]-2-oxo-2,3-dihydro-1H-indole-6-carboxylic acid (2-morpholin-4-yl-ethyl)-amide] | 5 | 5 | 44 (≈ 24.5 µg/mL)
CN(C)CCCNC(=O)c1cc(Br)c2c(c1)NC(=O)/C2=N\NC(=O)Cc1ccc2c(c1)CCO2 [Example 9, 4-Bromo-3-[(2-2,3-dihydro-benzofuran-5-yl-acetyl)-hydrazono]-2-oxo-2,3-dihydro-1H-indole-6-carboxylic acid (3-dimethylamino-propyl)-amide] | 5 |  | 
O=C(Cc1ccc2c(c1)CCO2)N/N=C1\C(=O)Nc2cc(C(=O)NCCCN3CC[C@@H](O)C3)cc(Br)c21 [Example 10, (R)-4-Bromo-3-[(2-2,3-dihydro-benzofuran-5-yl-acetyl)-hydrazono]-2-oxo-2,3-dihydro-1H-indole-6-carboxylic acid [3-(3-hydroxy-pyrrolidin-1-yl)-propyl]-amide] | 0.7 |  | 

Continued, values first:

IC50 (c-Met [1]) [nM] | IC50 (c-Met [2]) [nM] | solubility at 15 min (Aqueous solubility assay) [µM] | Molecule
0.5 |  |  | O=C(Cc1ccc2c(c1)CCO2)N/N=C1\C(=O)Nc2cc(C(=O)NCCCN3CCC[C@@H]3CO)cc(Br)c21 [Example 11, (R)-4-Bromo-3-[(2-2,3-dihydro-benzofuran-5-yl-acetyl)-hydrazono]-2-oxo-2,3-dihydro-1H-indole-6-carboxylic acid [3-(2-hydroxymethyl-pyrrolidin-1-yl)-propyl]-amide]
2 |  |  | O=C(Cc1ccc2c(c1)CCO2)N/N=C1\C(=O)Nc2cc(C(=O)NCCCN3CCC(O)CC3)cc(Br)c21 [Example 12, 4-Bromo-3-[(2-2,3-dihydro-benzofuran-5-yl-acetyl)-hydrazono]-2-oxo-2,3-dihydro-1H-indole-6-carboxylic acid [3-(4-hydroxy-piperidin-1-yl)-propyl]-amide]
1 |  |  | O=C(Cc1ccc2c(c1)CCO2)N/N=C1\C(=O)Nc2cc(C(=O)NCCCN3CC[C@H](O)C3)cc(Br)c21 [Example 13, (S)-4-Bromo-3-[(2-2,3-dihydro-benzofuran-5-yl-acetyl)-hydrazono]-2-oxo-2,3-dihydro-1H-indole-6-carboxylic acid [3-(3-hydroxy-pyrrolidin-1-yl)-propyl]-amide]
1.6 |  |  | CN(C)CCCNC(=O)c1cc(Br)c2c(c1)NC(=O)/C2=N\NC(=O)Cc1ccc2occc2c1 [Example 14, 3-[(2-Benzofuran-5-yl-acetyl)-hydrazono]-4-bromo-2-oxo-2,3-dihydro-1H-indole-6-carboxylic acid (3-dimethylamino-propyl)-amide]
1 |  |  | O=C(Cc1ccc2c(c1)CCO2)N/N=C1\C(=O)Nc2cc(C(=O)NCCCO)cc(Br)c21 [Example 15, 4-Bromo-3-[(2-2,3-dihydro-benzofuran-5-yl-acetyl)-hydrazono]-2-oxo-2,3-dihydro-1H-indole-6-carboxylic acid (3-hydroxy-propyl)-amide]
65 |  |  | CN1CCN(C(=O)c2cc(Br)c3c(c2)NC(=O)/C3=N\NC(=O)Cc2ccc3occc3c2)CC1 [Example 16, Benzofuran-5-yl-acetic acid [4-bromo-6-(4-methyl-piperazine-1-carbonyl)-2-oxo-1,2-dihydro-indol-3-ylidene]-hydrazide hydrochloride]
656 |  |  | CN1CCN(C(=O)c2cc(Br)c3c(c2)NC(=O)/C3=N\NC(=O)Cc2ccc3ocnc3c2)CC1 [Example 17, Benzooxazol-5-yl-acetic acid [4-bromo-6-(4-methyl-piperazine-1-carbonyl)-2-oxo-1,2-dihydro-indol-3-ylidene]-hydrazide]
4700 |  |  | CN1CCN(C(=O)c2cc(Br)c3c(c2)NC(=O)/C3=N\NC(=O)Cc2ccc3sccc3c2)CC1 [Example 18, Benzothiophen-5-yl-acetic acid [4-bromo-6-(4-methyl-piperazine-1-carbonyl)-2-oxo-1,2-dihydro-indol-3-ylidene]-hydrazide hydrochloride]
158 |  |  | CN1CCN(C(=O)c2cc(Br)c3c(c2)NC(=O)/C3=N\NC(=O)Cc2ccc3onc(N)c3c2)CC1 [Example 19, (3-Amino-benzo[d]isoxazol-5-yl)-acetic acid [4-bromo-6-(4-methyl-piperazine-1-carbonyl)-2-oxo-1,2-dihydro-indol-3-ylidene]-hydrazide]
